# Assay results published in patent US12441691B2 (Cytokinetics, Inc., priority 2020, dated 2025).
# Test system: rabbit skeletal myofibrils (fast skeletal myofibrils)
# Test: Activation of fast skeletal myofibrils (PUMA assay, AC1.4)
# Assay type: biochemical
# Conditions: calcium at pCa25, AC1.4 = concentration at which the compound increased the enzymatic activity
# Outline: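 In 12 mM PIPES pH 6.8 with 2 mM MgCl2 and 1 mM DTT, Triton-washed rabbit skeletal myofibrils were run at the pCa25 calcium level. Myosin-made ADP was recycled through a PK/LDH coupled system; NADH loss read at 340 nm.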
row,Structure (SMILES),AC1.4 [µM]
1,"CC[C@H](C)[C@H]1C(=O)Nc2ccccc2CN1C(=O)N1CCC(N(C)C)C1 (stereo partly drawn) [Compound 234, (3S)-3-((S)-sec-butyl)-4-(3-(dimethylamino)pyrrolidine-1-carbonyl)-1,3,4,5-tetrahydro-2H-benzo[e][1,4]diazepin-2-one]",4.64
2,"CC[C@H](C)[C@H]1C(=O)Nc2ccccc2CN1C(=O)N(C)C1CCN(C)C1 (stereo partly drawn) [Compound 235, (3S)-3-((S)-sec-butyl)-N-methyl-N-(1-methylpyrrolidin-3-yl)-2-oxo-1,2,3,5-tetrahydro-4H-benzo[e][1,4]diazepine-4-carboxamide]",1.45
3,"CC[C@H](C)[C@H]1C(=O)Nc2ccccc2CN1C(=O)N1CCC[C@H]1C(=O)O [Compound 236, ((S)-3-((S)-sec-butyl)-2-oxo-2,3,4,5-tetrahydro-1H-benzo[e][1,4]diazepine-4-carbonyl)-L-proline]",3.43
4,"CC[C@H](C)[C@H]1C(=O)Nc2ccccc2CN1C(=O)N(C)Cc1coc(C)n1 [Compound 237, (S)-3-((S)-sec-butyl)-N-methyl-N-((2-methyloxazol-4-yl)methyl)-2-oxo-1,2,3,5-tetrahydro-4H-benzo[e][1,4]diazepine-4-carboxamide]",1.86
5,"CC[C@H](C)[C@H]1C(=O)Nc2ccccc2CN1C(=O)N1CCCC(C(N)=O)C1 (stereo partly drawn) [Compound 238, 1-((S)-3-((S)-sec-butyl)-2-oxo-2,3,4,5-tetrahydro-1H-benzo[e][1,4]diazepine-4-carbonyl)piperidine-3-carboxamide]",4.49
6,"CC[C@H](C)[C@H]1C(=O)Nc2ccccc2CN1C(=O)N1CCC(N(C)C)CC1 [Compound 239, (S)-3-((S)-sec-butyl)-4-(4-(dimethylamino)piperidine-1-carbonyl)-1,3,4,5-tetrahydro-2H-benzo[e][1,4]diazepin-2-one]",1.65
7,"CC[C@H](C)[C@H]1C(=O)Nc2ccccc2CN1C(=O)N(C)CCS(C)(=O)=O [Compound 240, (S)-3-((S)-sec-butyl)-N-methyl-N-(2-(methylsulfonyl)ethyl)-2-oxo-1,2,3,5-tetrahydro-4H-benzo[e][1,4]diazepine-4-carboxamide]",2.87
8,"CC[C@H](C)[C@H]1C(=O)Nc2ccccc2CN1C(=O)N1CCCn2c(C)nnc21 [Compound 241, (S)-3-((S)-sec-butyl)-4-(3-methyl-5,6,7,8-tetrahydro-[1,2,4]triazolo[4,3-a]pyrimidine-8-carbonyl)-1,3,4,5-tetrahydro-2H-benzo[e][1,4]diazepin-2-one]",1.35
9,"CC[C@H](C)[C@H]1C(=O)Nc2ccccc2CN1C(=O)N1CCC(N(C)C(C)=O)C1 (stereo partly drawn) [Compound 242, N-(1-((S)-3-((S)-sec-butyl)-2-oxo-2,3,4,5-tetrahydro-1H-benzo[e][1,4]diazepine-4-carbonyl)pyrrolidin-3-yl)-N-methylacetamide]",4.30
10,"CC[C@H](C)[C@H]1C(=O)Nc2ccccc2CN1C(=O)N1CCN(C(=O)OC)CC1 [Compound 243, methyl 4-((S)-3-((S)-sec-butyl)-2-oxo-2,3,4,5-tetrahydro-1H-benzo[e][1,4]diazepine-4-carbonyl)piperazine-1-carboxylate]",1.93
11,"CC[C@H](C)[C@H]1C(=O)Nc2ccccc2CN1C(=O)N1CCCC1c1nc(C)no1 (stereo partly drawn) [Compound 244, (3S)-3-((S)-sec-butyl)-4-(2-(3-methyl-1,2,4-oxadiazol-5-yl)pyrrolidine-1-carbonyl)-1,3,4,5-tetrahydro-2H-benzo[e][1,4]diazepin-2-one]",2.43
12,"CC[C@H](C)[C@H]1C(=O)Nc2ccccc2CN1C(=O)N1CCC2(CC1)CNC(=O)C2 [Compound 245, (S)-3-((S)-sec-butyl)-4-(3-oxo-2,8-diazaspiro[4.5]decane-8-carbonyl)-1,3,4,5-tetrahydro-2H-benzo[e][1,4]diazepin-2-one]",3.88
13,"CC[C@H](C)[C@H]1C(=O)Nc2ccccc2CN1C(=O)N1CCN(S(C)(=O)=O)CC1 [Compound 246, (S)-3-((S)-sec-butyl)-4-(4-(methylsulfonyl)piperazine-1-carbonyl)-1,3,4,5-tetrahydro-2H-benzo[e][1,4]diazepin-2-one]",1.64
14,"CC[C@H](C)[C@H]1C(=O)Nc2ccccc2CN1C(=O)N1CCC[C@H](NS(C)(=O)=O)C1 [Compound 247, N-((S)-1-((S)-3-((S)-sec-butyl)-2-oxo-2,3,4,5-tetrahydro-1H-benzo[e][1,4]diazepine-4-carbonyl)piperidin-3-yl)methanesulfonamide]",2.49
15,"CC[C@H](C)[C@H]1C(=O)Nc2ccccc2CN1C(=O)N1CCC[C@@H](NS(C)(=O)=O)C1 [Compound 248, N-((R)-1-((S)-3-((S)-sec-butyl)-2-oxo-2,3,4,5-tetrahydro-1H-benzo[e][1,4]diazepine-4-carbonyl)piperidin-3-yl)methanesulfonamide]",3.71
16,"CC[C@H](C)[C@H]1C(=O)Nc2ccccc2CN1C(=O)N1CC(C(=O)O)C1 [Compound 249, 1-((S)-3-((S)-sec-butyl)-2-oxo-2,3,4,5-tetrahydro-1H-benzo[e][1,4]diazepine-4-carbonyl)azetidine-3-carboxylic acid]",4.51

row,Structure (SMILES),AC1.4 [µM]
1,"CC[C@H](C)[C@H]1C(=O)Nc2ccccc2CN1C(=O)N1CC(C(N)=O)C1 [Compound 250, 1-((S)-3-((S)-sec-butyl)-2-oxo-2,3,4,5-tetrahydro-1H-benzo[e][1,4]diazepine-4-carbonyl)azetidine-3-carboxamide]",0.60
2,"CC[C@H](C)[C@H]1C(=O)Nc2ccccc2CN1C(=O)Nc1nncs1 [Compound 251, (S)-3-((S)-sec-butyl)-2-oxo-N-(1,3,4-thiadiazol-2-yl)-1,2,3,5-tetrahydro-4H-benzo[e][1,4]diazepine-4-carboxamide]",0.08
3,"CC[C@H](C)[C@H]1C(=O)Nc2ccccc2CN1C(=O)N[C@@H](C(N)=O)c1ccccc1 [Compound 252, (S)-N-((R)-2-amino-2-oxo-1-phenylethyl)-3-((S)-sec-butyl)-2-oxo-1,2,3,5-tetrahydro-4H-benzo[e][1,4]diazepine-4-carboxamide]",0.44
4,"CC[C@H](C)[C@H]1C(=O)Nc2ccccc2CN1C(=O)Nc1ccc(=O)n(CC)c1 [Compound 253, (S)-3-((S)-sec-butyl)-N-(1-ethyl-6-oxo-1,6-dihydropyridin-3-yl)-2-oxo-1,2,3,5-tetrahydro-4H-benzo[e][1,4]diazepine-4-carboxamide]",0.08
5,"CC[C@H](C)[C@H]1C(=O)Nc2ccccc2CN1C(=O)Nc1ccc(=O)n(CC2CC2)c1 [Compound 254, (S)-3-((S)-sec-butyl)-N-(1-(cyclopropylmethyl)-6-oxo-1,6-dihydropyridin-3-yl)-2-oxo-1,2,3,5-tetrahydro-4H-benzo[e][1,4]diazepine-4-carboxamide]",0.07
6,"CC[C@H](C)[C@H]1C(=O)Nc2ccccc2CN1C(=O)Nc1cccn(CCOC)c1=O [Compound 255, (S)-3-((S)-sec-butyl)-N-(1-(2-methoxyethyl)-2-oxo-1,2-dihydropyridin-3-yl)-2-oxo-1,2,3,5-tetrahydro-4H-benzo[e][1,4]diazepine-4-carboxamide]",0.13
7,"CC[C@H](C)[C@H]1C(=O)Nc2ccccc2CN1C(=O)N[C@@H](C)C(N)=O [Compound 256, (S)-N-((S)-1-amino-1-oxopropan-2-yl)-3-((S)-sec-butyl)-2-oxo-1,2,3,5-tetrahydro-4H-benzo[e][1,4]diazepine-4-carboxamide]",1.89
8,"CC[C@H](C)[C@H]1C(=O)Nc2ccccc2CN1C(=O)Nc1cc(C(F)(F)F)c[nH]c1=O [Compound 257, (S)-3-((S)-sec-butyl)-2-oxo-N-(2-oxo-5-(trifluoromethyl)-1,2-dihydropyridin-3-yl)-1,2,3,5-tetrahydro-4H-benzo[e][1,4]diazepine-4-carboxamide]",0.02
9,"CC[C@H](C)[C@H]1C(=O)Nc2ccccc2CN1C(=O)Nc1cc(-c2ccncc2)c[nH]c1=O [Compound 258, (S)-3-((S)-sec-butyl)-2-oxo-N-(6-oxo-1,6-dihydro-[3,4′-bipyridin]-5-yl)-1,2,3,5-tetrahydro-4H-benzo[e][1,4]diazepine-4-carboxamide]",0.29
10,"CC[C@H](C)[C@H]1C(=O)Nc2ccccc2CN1C(=O)NCC(=O)N1CCC[C@H]1C(=O)O [Compound 259, ((S)-3-((S)-sec-butyl)-2-oxo-2,3,4,5-tetrahydro-1H-benzo[e][1,4]diazepine-4-carbonyl)glycyl-L-proline]",2.44
11,"CC[C@H](C)[C@H]1C(=O)Nc2ccccc2CN1C(=O)NCCN1CCNC1=O [Compound 260, (S)-3-((S)-sec-butyl)-2-oxo-N-(2-(2-oxoimidazolin-1-yl)ethyl)-1,2,3,5-tetrahydro-4H-benzo[e][1,4]diazepine-4-carboxamide]",1.91
12,"CC[C@H](C)[C@H]1C(=O)Nc2ccccc2CN1C(=O)NCC1(CO)COC1 [Compound 261, (S)-3-((S)-sec-butyl)-N-((3-(hydroxymethyl)oxetan-3-yl)methyl)-2-oxo-1,2,3,5-tetrahydro-4H-benzo[e][1,4]diazepine-4-carboxamide]",3.34
13,"CC[C@H](C)[C@H]1C(=O)Nc2ccccc2CN1C(=O)NCCCCN1CCC(C(N)=O)CC1 [Compound 262, (S)-3-((S)-sec-butyl)-N-(4-(4-carbamoylpiperidin-1-yl)butyl)-2-oxo-1,2,3,5-tetrahydro-4H-benzo[e][1,4]diazepine-4-carboxamide]",0.46
14,"CC[C@H](C)[C@H]1C(=O)Nc2ccccc2CN1C(=O)NCC(C)(C)C(N)=O [Compound 263, (S)-N-(3-amino-2,2-dimethyl-3-oxopropyl)-3-((S)-sec-butyl)-2-oxo-1,2,3,5-tetrahydro-4H-benzo[e][1,4]diazepine-4-carboxamide]",2.70
15,"CC[C@H](C)[C@H]1C(=O)Nc2ccccc2CN1C(=O)N1CC(N2CCCC2)C1 [Compound 264, (S)-3-((S)-sec-butyl)-4-(3-(pyrrolidin-1-yl)azetidine-1-carbonyl)-1,3,4,5-tetrahydro-2H-benzo[e][1,4]diazepin-2-one]",0.84
